Source: US20230210795A1, “3-HYDROXYBUTYRIC-ACID-CONTAINING OIL AND FAT COMPOSITION” (OSAKA GAS CO., LTD., priority 2020, published 2023)

Test: Deliquescence test: 1 g of composition left uncovered in a petri dish at 25° C. for 1 week, appearance and weight change evaluated
Assay type: physicochemical
Design: key: High fluidity and silky smoothness.; Δ: Slightly moist but highly fluid powder.; x: Agglomeration or deliquescence occurred
Conditions: for Appearance after 1 week / Appearance after 1 day: left uncovered at 25° C.
Description: R-3HB crystals or R-3HB salts (3HB-Na: sodium salt, 3HB-K: potassium salt) and oil and fat particles were weighed in the proportions shown in Table 2 below. Each mixture thereof was milled for 3 seconds five times in a mill mixer (IJM-M800-W, produced by Iris Ohyama Inc.). 1 g of each of the 3HB-containing compositions obtained in the Examples and Comparative Examples was weighed in petri dishes and left uncovered in a room adjusted to 25° C. for 1 week. The appearance and weight change of each composition was then evaluated. As comparative examples, combinations of commonly used silicon dioxide or calcium silicate and fat and/or oil were evaluated. […] The evaluation was made according to the following criteria.
o: High fluidity and silky smoothness. Δ: Slightly moist but highly fluid powder. x: Agglomeration or deliquescence occurred.

| Appearance immediately after milling | Appearance after 1 week | Appearance after 1 day | SMILES |
| --- | --- | --- | --- |
| Δ | x (Partial | x (Partial | CC(O)CC(=O)O (stereo not drawn) [Comp. Ex. 1, 3-Hydroxybutyric acid] |
| Δ | x | x | CC(O)CC(=O)[O-].[K+] (stereo not drawn) [Comp. Ex. 2] |
| ∘ | x | x | CC(O)CC(=O)[O-].[Na+] (stereo not drawn) [Comp. Ex. 3] |
